Here are results for 5 molecules from patent US20260015350A1, “AZAQUINAZOLINE PAN-KRAS INHIBITORS” (Mirati Therapeutics, Inc., priority 2022, published 2026).

The structures appear in SMILES notation.

The subject of assay [1] is KRas-mediated phosphorylation of ERK in H460 cells. The assay is described as follows: Inhibition of KRas-mediated phosphorylation of ERK (Cisbio HTRF pERK), H460 cells. The conditions noted are these: Homo sapiens, NCI-H460, HTRF pERK. It is filed as cell-based. A digest of the protocol: (§1)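 Min control wells contained 0.2 uM Trametinib, while test compounds ran as 10 doses (3-fold, top 10 uM; 0.8% DMSO final) on cells for 3 hrs. After 40 mins lysis at 4° C, lysates were probed with HTRF antibodies for 2 hrs at room temperature.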
For orientation: Time-resolved FRET reads energy transfer from a long-lived donor to a nearby acceptor.

The test system of assay [2] is KRas-mediated phosphorylation of ERK in PSN1 cells. The assay is described as follows: Inhibition of KRas-mediated phosphorylation of ERK (Cisbio HTRF pERK), PSN1 cells. It is filed as cell-based. Particulars: Homo sapiens. A digest of the protocol: (§2)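 Phospho-ERK is quantified by HTRF with the Advanced pERK kit. Cells go in at 6,000/well in RPMI plus 10% FBS overnight at 37° C. under 5% CO2, with a 4-hour covered room-temperature incubation ahead of the read.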

The target of another assay is T1, KRas^G12S (Homo sapiens, UniProt P01116, G12S).
T1 construct: Biotinylated KRas (corresponding to amino acids 1-169, produced at Accelegan Inc.); biotin (biotinylated); purchased Accelegan Inc
The assay is described as follows: KRas binding assay (TR-FRET tracer displacement), KRas G12S. The conditions noted are these: TR-FRET tracer displacement, KRas G12S.

For assay [3], the system named is KRas-mediated phosphorylation of ERK in HCT116 cells. The assay is described as follows: Inhibition of KRas-mediated phosphorylation of ERK (Cisbio HTRF pERK), HCT116 cells. It is filed as cell-based. The conditions noted are these: Homo sapiens, HCT-116, HTRF pERK. A digest of the protocol:
(§3)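 Following a 3-hr exposure of cells to serially diluted compound (from 10 uM, 3-fold, 10 doses), cold lysis for 40 mins preceded a 2-hr room-temperature HTRF immunoassay for phosphorylated ERK.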

The target in another assay is T2, KRas^G12R (Homo sapiens, UniProt P01116, G12R).
T2 construct: Biotinylated KRas (corresponding to amino acids 1-169, produced at Accelegan Inc.); biotin (biotinylated); purchased Accelegan Inc
The assay is described as follows: KRas binding assay (TR-FRET tracer displacement), KRas G12R.

Assay [4] concerns KRas-mediated phosphorylation of ERK in MKN1 cells. The assay is described as follows: Inhibition of KRas-mediated phosphorylation of ERK (Cisbio HTRF pERK), MKN1 cells. It is filed as cell-based. The conditions noted are these: Homo sapiens, MKN-1. A digest of the protocol: as §2
Another assay deals with T3, KRas^G12D (Homo sapiens, UniProt P01116, G12D).
T3 construct: Biotinylated KRas (corresponding to amino acids 1-169, produced at Accelegan Inc.); biotin (biotinylated); purchased Accelegan Inc
The assay is described as follows: KRas binding assay (TR-FRET tracer displacement), KRas G12D.

For assay [5], the system named is KRas-mediated phosphorylation of ERK in A549 cells. The assay is described as follows: Inhibition of KRas-mediated phosphorylation of ERK (Cisbio HTRF pERK), A549 cells. The conditions noted are these: Homo sapiens, HTRF pERK. Format: cell-based. A digest of the protocol: as §3
Assay [6] has as its system KRas-mediated phosphorylation of ERK in H727 cells. The assay is described as follows: Inhibition of KRas-mediated phosphorylation of ERK (Cisbio HTRF pERK), H727 cells. It is filed as cell-based. The conditions noted are these: Homo sapiens, NCI-H727, H727 cells; HTRF pERK. A digest of the protocol:
as §1

Another assay addresses T4, KRas^G12V (Homo sapiens, UniProt P01116, G12V).
T4 construct: Biotinylated KRas (corresponding to amino acids 1-169, produced at Accelegan Inc.); biotin (biotinylated); purchased Accelegan Inc
The assay is described as follows: KRas binding assay (TR-FRET tracer displacement), KRas G12V.

The test system of assay [7] is KRas-mediated phosphorylation of ERK in H358 cells. The assay is described as follows: Inhibition of KRas-mediated phosphorylation of ERK (Cisbio HTRF pERK), H358 cells. Particulars: Homo sapiens, NCI-H358, HTRF pERK. It is filed as cell-based. In a few lines:
as §1

In another assay the target is T5, KRas^G12C (Homo sapiens, UniProt P01116, G12C).
T5 construct: Biotinylated KRas (corresponding to amino acids 1-169, produced at Accelegan Inc.); biotin (biotinylated); purchased Accelegan Inc
The assay is described as follows: KRas binding assay (TR-FRET tracer displacement), KRas G12C. Particulars: TR-FRET tracer displacement, KRas G12C.

For assay [8], the system named is KRas-mediated phosphorylation of ERK in AsPC-1 cells. The assay is described as follows: Inhibition of KRas-mediated phosphorylation of ERK (Cisbio HTRF pERK), AsPC-1 cells. Particulars: Homo sapiens, ASPC1, AsPC-1 cells; HTRF pERK. It is filed as cell-based. A digest of the protocol: as §1
The target in the next assay is T6, KRas^WT (Homo sapiens, UniProt P01116).
T6 construct: Biotinylated KRas (corresponding to amino acids 1-169, produced at Accelegan Inc.); biotin (biotinylated); purchased Accelegan Inc
The assay is described as follows: KRas binding assay (TR-FRET tracer displacement), KRas WT. Particulars: TR-FRET tracer displacement, KRas WT.

T5 sequence (P01116 1-169 isoform P01116-2 G12C): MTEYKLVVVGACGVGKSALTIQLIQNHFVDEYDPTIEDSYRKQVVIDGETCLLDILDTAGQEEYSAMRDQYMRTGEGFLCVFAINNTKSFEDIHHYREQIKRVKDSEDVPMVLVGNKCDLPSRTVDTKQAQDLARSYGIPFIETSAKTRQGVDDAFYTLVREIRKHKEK
T1 sequence (P01116 1-169 isoform P01116-2 G12S): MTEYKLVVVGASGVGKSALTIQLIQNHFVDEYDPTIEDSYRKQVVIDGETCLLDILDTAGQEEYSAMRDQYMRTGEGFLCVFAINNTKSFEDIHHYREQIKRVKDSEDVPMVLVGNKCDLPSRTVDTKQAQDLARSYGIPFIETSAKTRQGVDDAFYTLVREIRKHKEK
T2 sequence (P01116 1-169 isoform P01116-2 G12R): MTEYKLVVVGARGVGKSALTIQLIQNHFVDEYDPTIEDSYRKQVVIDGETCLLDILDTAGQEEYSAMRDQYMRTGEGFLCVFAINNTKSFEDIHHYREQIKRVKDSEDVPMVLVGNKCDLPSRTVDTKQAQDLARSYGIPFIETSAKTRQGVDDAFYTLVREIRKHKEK
T4 sequence (P01116 1-169 isoform P01116-2 G12V): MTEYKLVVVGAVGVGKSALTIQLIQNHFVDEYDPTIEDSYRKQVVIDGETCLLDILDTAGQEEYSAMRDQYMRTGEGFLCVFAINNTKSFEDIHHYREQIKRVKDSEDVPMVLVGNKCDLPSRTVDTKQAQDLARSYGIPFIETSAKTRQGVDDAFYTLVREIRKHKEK
T3 sequence (P01116 1-169 isoform P01116-2 G12D): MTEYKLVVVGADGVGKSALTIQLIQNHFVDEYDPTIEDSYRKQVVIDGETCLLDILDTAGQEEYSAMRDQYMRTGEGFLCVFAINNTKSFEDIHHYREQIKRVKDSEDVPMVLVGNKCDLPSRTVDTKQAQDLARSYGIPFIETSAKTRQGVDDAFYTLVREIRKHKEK
T6 sequence (P01116 1-169 isoform P01116-2): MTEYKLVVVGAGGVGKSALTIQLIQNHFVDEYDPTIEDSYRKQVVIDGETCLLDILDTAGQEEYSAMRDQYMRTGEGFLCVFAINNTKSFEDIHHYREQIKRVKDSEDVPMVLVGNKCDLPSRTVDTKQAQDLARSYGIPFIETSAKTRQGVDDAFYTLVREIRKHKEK

Turning to `CCc1c(F)ccc2cc(O)cc(-c3ncc4c(N5CC[C@H]6C(=O)O[C@H]6C5)nc(OC[C@@]56CCCN5C[C@H](F)C6)nc4c3F)c12` [Example 802, 3-(7-(8-ethyl-7-fluoro-3-hydroxynaphthalen-1-yl)-8-fluoro-2-(((2R,7aS)-2-fluorotetrahydro-1H-pyrrolizin-7a(5H)-yl)methoxy)pyrido[4,3-d]pyrimidin-4-yl)-8-oxa-3-azabicyclo[4.2.0]octan-7-one], the IC50 in assay [1] is > 10000 nM; in assay [2], > 10000 nM; at KRas^G12S, 2 nM; in assay [3] it was > 10000 nM; on KRas^G12R, 35 nM; in assay [4] it was > 10000 nM. The IC50 is 189 nM at KRas^G12D; 12 nM in [5]; > 10000 nM in assay [6]; 116 nM at KRas^G12V; 32 nM in assay [7]; 2 nM on KRas^G12C. The IC50 in assay [8] was > 10000 nM.
For `CCc1c(F)ccc2cc(O)cc(-c3nc4c5c(nc(OC[C@@]67CCCN6C[C@H](F)C7)nc5c3F)NCCO4)c12` [Example 803, 5-ethyl-6-fluoro-4-(4-fluoro-2-(((2R,7aS)-2-fluorotetrahydro-1H-pyrrolizin-7a(5H)-yl)methoxy)-9,10-dihydro-8H-7-oxa-1,3,6,10-tetraazacyclohepta[de]naphthalen-5-yl)naphthalen-2-ol], the IC50 on KRas^G12S was 14 nM; on KRas^G12D it was 14 nM; at KRas^WT it was 20 nM; on KRas^G12V, 9 nM; at KRas^G12C, 11 nM.
Take `C[C@@]1(O)CCCN(c2nc(OC[C@@]34CCCN3C[C@H](F)C4)nc3c(F)c(-c4ccc(F)c5sc(N)c(C#N)c45)ncc23)C1` [Example 912, 2-amino-7-fluoro-4-(8-fluoro-2-(((2R,7aS)-2-fluorotetrahydro-1H-pyrrolizin-7a(5H)-yl)methoxy)-4-((R)-3-hydroxy-3-methylpiperidin-1-yl)pyrido[4,3-d]pyrimidin-7-yl)benzo[b]thiophene-3-carbonitrile]: the IC50 in assay [1] is 2050 nM; in [2] it was > 10000 nM; in assay [3] it was 1830 nM; on KRas^G12R it was 85 nM; in [4] it was 504 nM; at KRas^G12D, 45 nM. Besides, the IC50 amounted to 2820 nM in [5]; 3310 nM in assay [6]; 69 nM on KRas^G12V; 800 nM in [7]; 2310 nM in [8].
For the molecule `CCc1c(F)ccc2cc3[nH]ncc3c(-c3ncc4c(N5CCC[C@]6(C5)NC(=O)NC6=O)nc(OC[C@@]56CCCN5C[C@H](F)C6)nc4c3F)c12` [Example 915, (5R)-7-(7-(5-ethyl-6-fluoro-1H-benzo[f]indazol-4-yl)-8-fluoro-2-(((2R,7aS)-2-fluorotetrahydro-1H-pyrrolizin-7a(5H)-yl)methoxy)pyrido[4,3-d]pyrimidin-4-yl)-1,3,7-triazaspiro[4.5]decane-2,4-dione], the IC50 is 36 nM in [1]; 1550 nM in assay [2]; 60 nM in assay [3]; < 2 nM on KRas^G12R; 14 nM in [4]; < 2 nM at KRas^G12D. Moreover, the IC50 in [5] is 51 nM; in assay [6] it was 74 nM; on KRas^G12V it was < 2 nM; in [7], 9 nM; in assay [8], 94 nM.
Turning to `CCc1c(F)ccc2cc(O)cc(-c3ncc4c(N5CC6CCC(C5)S6)nc(OC[C@@]56CCCN5C[C@H](F)C6)nc4c3F)c12` [Example 922, 4-(4-(8-thia-3-azabicyclo[3.2.1]octan-3-yl)-8-fluoro-2-(((2R,7aS)-2-fluorotetrahydro-1H-pyrrolizin-7a(5H)-yl)methoxy)pyrido[4,3-d]pyrimidin-7-yl)-5-ethyl-6-fluoronaphthalen-2-ol], the IC50 was 9 nM on KRas^G12S; 74 nM on KRas^G12D; 576 nM in assay [6]; 21 nM on KRas^WT; 13 nM at KRas^G12V; 18 nM on KRas^G12C. Further, the IC50 in assay [8] is 1380 nM.

In general, IC50 refers to the concentration that inhibits the measured activity by half. High values mean lower potency, low ones higher potency.
